Test results from PubChem BioAssay (NCI).
Where “and” joins values, the source holds several entries; their conditions need not be identical. Equal values may be shown once.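 Compound exposure: 48 hours, 5 concentrations, 96-well plates. At the GI50, growth is halved. At the TGI there is no net growth.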

Experiments:
Assay in all cases: NCI tumour cell line growth inhibition, 48 h
MDA-N = system: MDA-N
DMS 114 small cell lung = system: DMS 114 small cell lung
KM20L2 colon = system: KM20L2 colon
DLD-1 colon = system: DLD-1 colon
RXF-631 renal = system: RXF-631 renal
M19-MEL melanoma = system: M19-MEL melanoma
HOP-18 NSCLC = system: HOP-18 NSCLC
XF 498 CNS = system: XF 498 CNS
LXFL 529 NSCLC = system: LXFL 529 NSCLC
P388 leukemia = system: P388 leukemia
SN12K1 renal = system: SN12K1 renal
P388/ADR leukemia = system: P388/ADR leukemia

Oc1cccnc1[Se]
TGI (MDA-N): > 100 µM

Cc1ccc(/C=C/C(=O)c2sc(-c3nc(C)c(C(=O)/C=C/c4ccc(C)cc4)s3)nc2C)cc1
TGI (DMS 114 small cell lung): > 100 µM | TGI (KM20L2 colon): > 100 µM | TGI (DLD-1 colon): > 100 µM | TGI (RXF-631 renal): > 100 µM | TGI (M19-MEL melanoma): > 100 µM | TGI (HOP-18 NSCLC): > 100 µM

Cc1cc(Cl)ccc1NC(=O)C(=O)Cc1nc2ccccc2o1
TGI (DMS 114 small cell lung): > 100 µM | TGI (KM20L2 colon): > 100 µM | TGI (XF 498 CNS): > 100 µM | TGI (DLD-1 colon): > 100 µM | TGI (RXF-631 renal): > 100 µM | TGI (LXFL 529 NSCLC): > 100 µM | TGI (M19-MEL melanoma): > 100 µM | TGI (HOP-18 NSCLC): > 100 µM

O=C(O)Cc1cc(Cl)ccc1O
TGI (MDA-N): > 100 µM

O=C(Nc1nc(=S)c2c(ncn2CCOC(=O)c2ccccc2)[nH]1)c1ccccc1
TGI (DMS 114 small cell lung): > 100 µM | TGI (KM20L2 colon): > 100 µM | TGI (DLD-1 colon): > 100 µM | TGI (LXFL 529 NSCLC): > 100 µM | TGI (M19-MEL melanoma): > 100 µM | TGI (HOP-18 NSCLC): > 100 µM

C=C(Cl)C(Br)(CCl)CCC(Br)C(C)(C)Cl (centres undefined)
GI50 (MDA-N): 2.05 µM | TGI (MDA-N): 7.34 µM and 4.3 µM

CN(C)CC1CCCC/C1=N/OC(=O)c1ccc(Cl)cc1 (centres undefined)
TGI (KM20L2 colon): > 100 µM | TGI (XF 498 CNS): > 100 µM | TGI (DLD-1 colon): > 100 µM | TGI (LXFL 529 NSCLC): > 100 µM | TGI (M19-MEL melanoma): > 100 µM | TGI (HOP-18 NSCLC): > 100 µM

Cc1cc(N(CCC#N)CCC#N)ccc1N=Nc1ccc(C(=O)O)cc1
TGI (DMS 114 small cell lung): > 100 µM | TGI (XF 498 CNS): > 100 µM | TGI (LXFL 529 NSCLC): > 100 µM | TGI (M19-MEL melanoma): > 100 µM | TGI (HOP-18 NSCLC): > 100 µM

CCOC(=O)C(=[N+]=[N-])[Si](C)(C)C
TGI (DMS 114 small cell lung): > 100 µM | TGI (KM20L2 colon): > 100 µM | TGI (XF 498 CNS): > 100 µM | TGI (DLD-1 colon): > 100 µM | TGI (M19-MEL melanoma): > 100 µM | TGI (HOP-18 NSCLC): > 100 µM

NC(=O)C12CC3CC(CC(F)(C3)C1)C2
TGI (DMS 114 small cell lung): > 100 µM | TGI (KM20L2 colon): > 100 µM | TGI (XF 498 CNS): > 100 µM | TGI (DLD-1 colon): > 100 µM | TGI (LXFL 529 NSCLC): > 100 µM | TGI (M19-MEL melanoma): > 100 µM

O=C1Nc2ccccc2/C1=N\[O-].O=C1Nc2ccccc2/C1=N\[O-].[Cu+2]
GI50 (MDA-N): > 100 µM | TGI (MDA-N): > 100 µM

Cc1c2c(C#N)nccc2c(C)c2c1c1ccccc1n2Cc1ccccc1
TGI (MDA-N): > 100 µM

CCN1CCC(O)(c2ccc(OC)cc2)C(C(=O)c2ccc(OC)cc2)C1 (centres undefined)
TGI (DMS 114 small cell lung): 40.8 µM | TGI (KM20L2 colon): 33.2 µM | TGI (XF 498 CNS): 31.7 µM | TGI (DLD-1 colon): 36.3 µM | TGI (RXF-631 renal): 47.5 µM | TGI (LXFL 529 NSCLC): 37.2 µM | TGI (M19-MEL melanoma): 34.9 µM

Cc1ccc(NC(=O)CCc2cc(C(C)(C)C)nc(=S)[nH]2)cc1C
TGI (DMS 114 small cell lung): > 100 µM | TGI (KM20L2 colon): > 100 µM | TGI (XF 498 CNS): > 100 µM | TGI (LXFL 529 NSCLC): > 100 µM | TGI (HOP-18 NSCLC): > 100 µM

OCC1OC(c2nc(C3=NCCCN3)cs2)C(O)C1O (centres undefined)
TGI (DMS 114 small cell lung): > 100 µM | TGI (KM20L2 colon): > 100 µM | TGI (XF 498 CNS): > 100 µM | TGI (DLD-1 colon): > 100 µM | TGI (RXF-631 renal): > 100 µM | TGI (LXFL 529 NSCLC): > 100 µM | TGI (M19-MEL melanoma): > 100 µM | TGI (HOP-18 NSCLC): > 100 µM

[N-]=[N+]=N[C@H]1C[C@@H](CO)O[C@H]1n1cnc2c(N)ncnc21
TGI (DMS 114 small cell lung): > 100 µM | TGI (KM20L2 colon): > 100 µM | TGI (XF 498 CNS): > 100 µM | TGI (DLD-1 colon): > 100 µM | TGI (LXFL 529 NSCLC): > 100 µM | TGI (M19-MEL melanoma): > 100 µM | TGI (HOP-18 NSCLC): > 100 µM

CCCc1nc(NC#N)nc(C(=O)Nc2ccccc2)c1CC
TGI (DMS 114 small cell lung): > 100 µM | TGI (KM20L2 colon): > 100 µM | TGI (XF 498 CNS): > 100 µM | TGI (DLD-1 colon): > 100 µM | TGI (RXF-631 renal): > 100 µM | TGI (LXFL 529 NSCLC): > 100 µM | TGI (M19-MEL melanoma): > 100 µM | TGI (HOP-18 NSCLC): > 100 µM

CC1c2c(Cl)nc3ccccc3c2Oc2c1c(Cl)nc1ccccc21
TGI (DMS 114 small cell lung): > 100 µM | TGI (KM20L2 colon): > 100 µM | TGI (DLD-1 colon): > 100 µM | TGI (LXFL 529 NSCLC): > 100 µM | TGI (M19-MEL melanoma): > 100 µM | TGI (HOP-18 NSCLC): > 100 µM

COc1cc(NCc2ccc3nc(N)nc(N)c3c2C)cc(OC)c1OC (tested in a mixture with another compound)
TGI (DMS 114 small cell lung): 37.7 µM | TGI (P388 leukemia): 10 µM | TGI (KM20L2 colon): 48.5 µM | TGI (XF 498 CNS): 8.19 µM | GI50 (MDA-N): 0.025 µM | TGI (MDA-N): 44.9 µM | TGI (DLD-1 colon): 95.6 µM | TGI (SN12K1 renal): 36.6 µM | TGI (P388/ADR leukemia): 12.7 µM | TGI (M19-MEL melanoma): 52.5 µM | TGI (HOP-18 NSCLC): 146 µM

O=C(/C=C/c1cccc2ccccc12)c1ccccc1Cl
TGI (DMS 114 small cell lung): 27.6 µM | TGI (KM20L2 colon): 25.6 µM | TGI (XF 498 CNS): 20.6 µM | TGI (DLD-1 colon): 24 µM | TGI (RXF-631 renal): 41.9 µM | TGI (LXFL 529 NSCLC): 26.8 µM | TGI (HOP-18 NSCLC): 33.3 µM
